In brackets after ≈: the same amount, converted by molar mass.
Assays:
Type in all cases: physicochemical
[1] = Stability test under preservation conditions (appearance, HPLC purity, XRD, DSC); conditions: for Stability under various preservation conditions (overall evaluation): all preservation conditions; for Purity: HPLC
Description: A sample was fixed to an aluminum cell, and the measurement was performed using an X-ray powder diffractometer (RINT 2000/PC Ultima^+, manufactured by Rigaku Corporation, X-ray source: Cu-Kα1 ray, tube voltage: 40 kV, tube electric current: […], scan speed: 5° per min, step width: 0.02°, diffraction angle: 5-40°), based on which the diffraction patterns were obtained. Crystal form I and crystal form II were subjected to measurement using a Differential Scanning Calorimetry (DSC) measurement apparatus (DSC8240, manufactured by Rigaku Corporation), under atmosphere, measurement sample 5±1 mg, temperature rise rate: 10° C./min, aluminum open pan, and alumina oxide as a reference. The enthalpy and extrapolated onset temperature at an endothermic peak on the obtained DSC curve were determined. Crystal form III was subjected to measurement using a DSC measurement apparatus (DSC8240, manufactured by Rigaku Corporation), under atmosphere, measurement sample 5.0+0.5 mg, temperature rise rate: 5° C./min, aluminum closed pan, and alumina oxide as a reference. The enthalpy and extrapolated onset temperature at an endothermic peak on the obtained DSC curve were determined. Each sample (crystal form I and crystal form II, ca. 10 mg) was dissolved in acetonitrile to make an amount of 10 mL and used as a sample solution. This solution ([…]) was applied to high performance liquid chromatography (HPLC) under the following conditions. The peak area of each sample solution was measured by automatic integration, and the purity was determined by the following formula. The purity is shown in the Tables 5 and 6 below. • Detector: UV absorptiometer (wavelength: 259 nm) • Column: CAPCELL PAK MG (inner diameter […], length 15 cm, particle size 5 μm, manufactured by Shiseido Co., Ltd. • Column temperature: constant temperature around 40° C. • Mobile phase A: trifluoroacetic acid solution (1:1000) • Mobile phase B: solution of trifluoroacetic acid in acetonitrile (1:1000) • Gradient program: As shown in the following Table 2, the mixing ratio of mobile phase A and mobile phase B is changed to control concentration gradient. A sample (crystal form III, ca. 50 mg) was dissolved in a mixture (4:1) of mobile phase B and mobile phase A to make an amount of 50 mL, which was used as a sample solution. This solution (1 mL) was precisely measured and a mixture (4:1) of mobile phase B and mobile phase A was added to precisely make an amount of 100 mL, which was used as a standard solution. The sample solution and standard solution ([…]) was applied to high performance liquid chromatography (HPLC) under the following conditions. The peak area of each solution was measured by automatic integration, and the purity was determined by the following formula. The purity is shown in the Table 7 below. • Detector: UV absorptiometer (wavelength: 259 nm) • Column: Waters XTerra MC C18 ([…], manufactured by Waters) • Column temperature: constant temperature around 40° C. • Mobile phase A: phosphoric acid is added to dipotassium hydrogenphosphate solution (1>1149) to adjust pH to 7.0 • Mobile phase B: acetonitrile • Gradient program: As shown in the following Table 3, the mixing ratio of mobile phase A and mobile phase B is changed to control concentration gradient. A stability test of each sample was performed under the following preservation conditions. The results of crystal form I are shown in Table 5, the results of crystal form II are shown in Table 6, and the results of crystal form III are shown in Table 7.

[2] = Thermal analysis (DSC): enthalpy and extrapolated onset temperature at endothermic peak; conditions: for Endothermic peak Enthalpy / Endothermic peak Extrapolated onset temperature: crystal forms I and II 10° C./min, aluminum open pan, crystal form III 5° C./min, aluminum closed pan
Excerpt: This test aims at the measurement of the enthalpy and extrapolated onset temperature at an endothermic peak on the Differential Scanning Calorimetry (DSC) measurement curve. These values are among the indices of the stability of the above-mentioned crystal form I, crystal form II and crystal form III, and can be used as an index to specify the crystal form. Crystal form I and crystal form II were subjected to measurement using a Differential Scanning Calorimetry (DSC) measurement apparatus (DSC8240, manufactured by Rigaku Corporation), under atmosphere, measurement sample 5±1 mg, temperature rise rate: 10° C./min, aluminum open pan, and alumina oxide as a reference. The enthalpy and extrapolated onset temperature at an endothermic peak on the obtained DSC curve were determined. Crystal form III was subjected to measurement using a DSC measurement apparatus (DSC8240, manufactured by Rigaku Corporation), under atmosphere, measurement sample 5.0+0.5 mg, temperature rise rate: 5° C./min, aluminum closed pan, and alumina oxide as a reference. The enthalpy and extrapolated onset temperature at an endothermic peak on the obtained DSC curve were determined.

[3] = Solubility test in various test solutions and pHs
Description: This test aims at measurement of solubility of the crystal in various test solutions and under various pHs. The solubility is one of the indices of the stability of the above-mentioned crystal form I, crystal form II and crystal form III and can be used also as a reference indices of absorbability of crystal form by living organisms. Each sample (crystal form I type I, crystal form II and crystal form III, ca. 10 mg) was placed in a 10 mL centrifuge tube together with the following test solution (5 mL) and shaken with a shaker (SR-1M; manufactured by […] Co., Ltd.) for 14 hours. After shaking, the mixture was centrifuged (3000 rpm, 20 min) and the supernatant was filtered through 0.2 μm pore size-13 mm diameter polytetrafluoroethylene disk filter (Millex-LG; manufactured by Millipore Corporation). The measurement was performed by high performance liquid chromatography (HPLC).

[4] = condition 2: 80° C., closed container, preserved for 3 days
[5] = condition 3: 80° C., open container, preserved for 3 days
[6] = condition 4: 60° C., closed container, preserved for 3 weeks
[7] = condition 5: 60° C., open container, preserved for 3 weeks
[8] = condition 6: 60° C./75% R.H., open container, preserved for 3 weeks
[9] = Japanese Pharmacopoeia 1st fluid, pH 1.2, shaken 14 hours
[10] = Japanese Pharmacopoeia 2nd fluid, pH 6.8, shaken 14 hours
[11] = McIlvaine buffer pH 2.2, shaken 14 hours
[12] = McIlvaine buffer pH 4, shaken 14 hours
[13] = McIlvaine buffer pH 5, shaken 14 hours
[14] = McIlvaine buffer pH 6.8, shaken 14 hours
[15] = McIlvaine buffer pH 8, shaken 14 hours
[16] = Purified water, shaken 14 hours
[17] = condition 6: 60° C./75% R.H., closed container, preserved for 3 weeks

| SMILES | Stability under various preservation conditions (overall evaluation) [1] | Purity ([1]; condition 1: Initial) [%] | Appearance [1, 4] | XRD (X-ray powder diffraction pattern vs initial) [1, 4] | Purity [1, 4] [%] | Appearance [1, 5] | XRD (X-ray powder diffraction pattern vs initial) [1, 5] | Purity [1, 5] [%] | Appearance [1, 6] | XRD (X-ray powder diffraction pattern vs initial) [1, 6] | Purity [1, 6] [%] | Appearance [1, 7] | XRD (X-ray powder diffraction pattern vs initial) [1, 7] | Purity [1, 7] [%] | Appearance [1, 8] | XRD (X-ray powder diffraction pattern vs initial) [1, 8] | Purity [1, 8] [%] | Endothermic peak Enthalpy [2] [J/g] | Endothermic peak Extrapolated onset temperature [2] [°C] | Solubility [3, 9] [µg/mL] | further results |
| --- | --- | --- | --- | --- | --- | --- | --- | --- | --- | --- | --- | --- | --- | --- | --- | --- | --- | --- | --- | --- | --- |
| COc1cc2c(cc1Cc1cccc(Cl)c1F)c(=O)c(C(=O)O)cn2[C@H](CO)C(C)C [Crystal form I, 6-(3-chloro-2-fluorobenzyl)-1-[(S)-1-hydroxymethyl-2-methylpropyl]-7-methoxy-4-oxo-1,4-dihydroquinoline-3-carboxylic acid] | unstable | 99.1 | No change | No change | 99.1 | No change | a part of the sample showed crystal transition to crystal form II | 99.1 | No change | No change | 99.1 | No change | a part of the sample showed crystal transition to crystal form II | 99.1 | No change | No change | 99.1 | 51.080 | 150.3 |  |  |
| COc1cc2c(cc1Cc1cccc(Cl)c1F)c(=O)c(C(=O)O)cn2[C@H](CO)C(C)C [Crystal form II, 6-(3-chloro-2-fluorobenzyl)-1-[(S)-1-hydroxymethyl-2-methylpropyl]-7-methoxy-4-oxo-1,4-dihydroquinoline-3-carboxylic acid] | extremely stable | 98.9 | No change | No change | 98.9 | No change | No change | 98.8 | No change | No change | 98.9 | No change | No change | 98.8 | No change | No change | 98.9 | 53.542 | 151.2 | 0.9 (≈ 2.01 µM) | Solubility [3, 10]: 5.8 µg/mL (≈ 12.9 µM); Solubility [3, 11]: 1.9 µg/mL (≈ 4.24 µM); Solubility [3, 12]: 0.8 µg/mL (≈ 1.79 µM); Solubility [3, 13]: 0.4 µg/mL (≈ 0.893 µM); Solubility [3, 14]: 6.3 µg/mL (≈ 14.1 µM); Solubility [3, 15]: 84 µg/mL (≈ 188 µM); solubility at 14 h ([3]; McIlvaine buffer, pH 6, aqueous buffer, thermodynamic from solid, McIlvaine buffer pH 6, shaken 14 hours): 1 µg/mL (≈ 2.23 µM); Solubility [3, 16]: 0.5 µg/mL (≈ 1.12 µM); Solubility compared between crystal forms ([3]; all test solutions of Table 4): higher solubility than crystal form III |
| COc1cc2c(cc1Cc1cccc(Cl)c1F)c(=O)c(C(=O)O)cn2[C@H](CO)C(C)C [Crystal form III, 6-(3-chloro-2-fluorobenzyl)-1-[(S)-1-hydroxymethyl-2-methylpropyl]-7-methoxy-4-oxo-1,4-dihydroquinoline-3-carboxylic acid] | extremely stable | 98.71 | No change | No change | 98.68 | No change | No change | 98.69 | No change | No change | 98.67 | No change | No change | 98.66 |  |  |  | 81.404 | 162.1 | <0.1 | Solubility [3, 10]: 2.4 µg/mL (≈ 5.36 µM); Solubility [3, 11]: <0.1 µg/mL; Solubility [3, 12]: <0.1 µg/mL; Solubility [3, 13]: <0.1 µg/mL; Solubility ([3]; McIlvaine buffer pH 6, shaken 14 hours): 0.7 µg/mL (≈ 1.56 µM); Solubility [3, 14]: 0.7 µg/mL (≈ 1.56 µM); Solubility [3, 15]: 23 µg/mL (≈ 51.4 µM); Solubility [3, 16]: <0.1 µg/mL; Appearance [1, 17]: No change; XRD (X-ray powder diffraction pattern vs initial) [1, 17]: No change; Purity [1, 17]: 98.65%; Stability among three crystal forms judged from enthalpy and extrapolated onset temperature [2]: most stable form |

— patent US20250091995A1, “STABLE CRYSTAL OF 4-OXOQUINOLINE COMPOUND” (Japan Tobacco Inc., priority 2004, published 2025)
